# In patent US20240359037A1, “Ultrasound Method” (ACT THERAPEUTICS LTD, priority 2021, published 2024):
# System: subcutaneous prostate cancer model (PC3)
# Test: Tumour specific uptake of Evans Blue vs. Enhancement MI
# Type: in vivo, mice
# Conditions: Enhancement 0.5 MHz MI 0.2 compared to MI=0 (no ultrasound); 30 min after treatment
# Procedure: To investigate the effect of MI variance of the US Enhancement field, tumour specific uptake of Evans Blue (EB, fluorescent dye) has been investigated in a subcutaneous prostate cancer model (PC3) in mice. Five groups with Enhancement insonation MIs of 0, 0.1, 0.2, 0.3 and 0.4 were investigated (N=3 animals per group). […] 30 min after treatment, the tumours were excised and the amount of EB was measured by spectrophotometry at 620 nm.
smiles,measurement,value
Cc1cc(-c2ccc(/N=N/c3ccc4c(S(=O)(=O)O)cc(S(=O)(=O)O)c(N)c4c3O)c(C)c2)ccc1/N=N/c1ccc2c(S(=O)(=O)O)cc(S(=O)(=O)O)c(N)c2c1O [Evans Blue],increase in tumour specific uptake,~60%
